According to patent US20100197650A1, “COMPOSITIONS AND METHODS OF TREATMENT COMPRISING CEFTAROLINE” (FOREST LABORATORIES HOLDINGS LTD., priority 2008, published 2010):
≈ marks a conversion by molar mass, not a printed value.

Assays:
Enterococcus faecalis = test: MIC, broth microdilution (Example 1); type: cell-based
Procedure: (§1) Stock solutions of all antibacterial agents were prepared at 80-fold (80×) the final target concentration in the appropriate solvent and the solution was allowed to stand for 60 minutes. All antibacterial agents were in solution under these conditions. The final drug concentrations in the FIC assay plates were set to bracket the MIC value of each agent for each test organism, unless the strain was totally resistant to the test agent.
(§2) The test organisms were originally received from clinical sources, or from the American Type Culture Collection. Upon receipt, the isolates were streaked onto the appropriate growth medium: Chocolate Agar for H. influenzae, Tryptic Soy Agar II (Becton Dickinson, Sparks, Md.) supplemented with 5% defibrinated sheep blood for streptococci, and unsupplemented Tryptic Soy Agar II for all other organisms. Colonies were harvested from these plates and a cell suspension was prepared in Tryptic Soy Broth (Becton Dickinson) containing cryoprotectant. Aliquots were then frozen at −80° C. On the day prior to assay, the frozen seeds of the organisms to be tested in that session were thawed and streaked for isolation onto the appropriate agar medium plates and incubated overnight at 35° C.
(§3) The test medium for H. influenzae was Haemophilus Test Medium. Streptococci were tested in Mueller Hinton II Broth (Becton Dickinson; Lot 6235472) supplemented with 2% lysed horse blood (Cleveland Scientific, Bath, Ohio; Lot H88621). All other organisms were tested in Mueller Hinton II Broth (Becton Dickinson, Lot 6235472). The broth was prepared at 1.05× normal weight/volume to offset the 5% volume of the drugs in the final test plates.
(§4) In order to select the proper test concentrations for each drug combination, minimal inhibitory concentration (MIC) values were first determined using the broth microdilution method previously described (Clinical and Laboratory Standards Institute. Methods for Dilution Antimicrobial Susceptibility Tests for Bacteria That Grow Aerobically; Approved Standard—Seventh Edition. Clinical and Laboratory Standards Institute document M7-A7 [ISBN 1-56238-587-9]. Clinical and Laboratory Standards Institute, 940 West Valley Road, Suite 1400, Wayne, Pa. 19087-1898 USA, 2006).
(§5) The wells of standard 96-well microdilution plates (Falcon 3918) were filled with 150 μL of 100% DMSO using the Multidrop 384. These plates were used to prepare the drug “mother plates” which provided the serial drug dilutions for the drug combination plates. The Biomek 2000 was used to transfer 150 μl of each stock solution (80×) from the wells in Column 1 of a deep well plate to the corresponding wells in Column 1 of the mother plate and to make seven 2-fold serial dilutions. Two mother plates, one for each drug, were combined to form a “checkerboard” pattern by transfer of equal volumes (using a multi-channel pipette) to the drug combination plate. Row H and Column 8 each contained serial dilutions of one of the agents alone for determination of the MIC.
(§6) Plates were stacked 3 high, covered with a lid on the top plate, placed in plastic bags, and incubated at 35° C. for approximately 20 hours. Following incubation, the microplates were removed from the incubator and viewed from the bottom using a ScienceWare plate viewer. Prepared reading sheets were marked for the MIC of drug 1 (row H), the MIC of drug 2 (column 8) and the wells of the growth-no growth interface.

Staphylococcus aureus = test: MIC, broth microdilution (Example 1); type: cell-based; details: Staphylococcus aureus
Procedure: as §1, §2, §3, §4, §5, §6

Streptococcus pneumoniae = test: MIC, broth microdilution (Example 1); type: cell-based; details: Streptococcus pneumoniae
Procedure: as §1, §2, §3, §4, §5, §6

HA-MRSA [1] = test: Susceptibility testing MIC/MBC, broth microdilution (Example 3); type: cell-based, Staphylococcus aureus
Procedure: Two hundred clinical HA-MRSA isolates, harboring the SCCmecIV type, were evaluated for susceptibility testing. […] Four strains, including 1 hVISA and 1 VISA, characterized by population analysis profile and Macro Etest were selected for time-kill analysis.
Trypose soy agar (TSA; Difco, Detroit, Mich.) was used for colony counting.
Minimum inhibitory concentrations (MIC) and minimum bactericidal concentrations (MBC) were determined by broth microdilution for all antimicrobials, according to the Clinical and Laboratory Standards Institute (CLSI) guidelines (Clinical and Laboratory Standards Institute. 2006. Methods for Dilution Antimicrobial Susceptibility Tests for Bacteria That Grow Aerobically; Approved Standard. 7th ed. Wayne, Pa.: CLSI). MBC values were determined by plating of aliquots of 5 μL from clear wells onto TSA. All susceptibility testing were performed in duplicate.

HA-MRSA [2] = test: Time-kill curves at ¼ and ½ MIC (Example 3); type: cell-based, Staphylococcus aureus; details: drug alone at ½ MIC, the 4 tested HA-MRSA strains
Procedure: Four randomly selected HA-MRSA isolates were evaluated in time-kill experiments, using a starting inoculum at ˜10^6 CFU/mL and antimicrobials at ¼ and ½ MIC. Regimens included ceftaroline, vancomycin and tobramycin alone or combination of tobramycin with ceftaroline or vancomycin. […] Additivity, antagonism and indifference were defined as <2 but >1 log10 kill, >1 log10 growth and ±1 log kill, respectively.
Differences between regimens were analyzed by T-test or ANOVA with Tukey's post hoc test. […] A P value <0.05 was considered significant.

[3] = Staphylococcus aureus, MRSA / VISA, HA-MRSA isolate R2303 (VISA)
[4] = Staphylococcus aureus, MRSA, HA-MRSA isolate R3804
[5] = Staphylococcus aureus, MRSA, HA-MRSA isolate R3875 (hVISA)
[6] = Staphylococcus aureus, MRSA, HA-MRSA isolate R4039

CN[C@H](CC(C)C)C(=O)N[C@H]1C(=O)N[C@@H](CC(N)=O)C(=O)N[C@H]2C(=O)N[C@H]3C(=O)N[C@H](C(=O)N[C@H](C(=O)O)c4cc(O)cc(O)c4-c4cc3ccc4O)[C@H](O)c3ccc(c(Cl)c3)Oc3cc2cc(c3O[C@@H]2O[C@H](CO)[C@@H](O)[C@H](O)[C@H]2O[C@H]2C[C@](C)(N)[C@H](O)[C@H](C)O2)Oc2ccc(cc2Cl)[C@H]1O [Vancomycin]
MIC (Enterococcus faecalis; E. faecalis 0796 (VSE)): 2 µg/mL
MIC (Enterococcus faecalis; Enterococcus faecalis): 2 µg/mL
MIC (Staphylococcus aureus; MRSA, S. aureus 0765 (MRSA)): 2 µg/mL
MIC (Staphylococcus aureus; MRSA, S. aureus 2053 (MRSA)): 1 µg/mL
MIC (Staphylococcus aureus; MSSA, S. aureus 0753 (MSSA)): 1 µg/mL
MIC (Staphylococcus aureus; MSSA, S. aureus 2063 (MSSA)): 1 µg/mL
MIC (Streptococcus pneumoniae; PRSP, S. pneumoniae 0880 (PRSP)): 0.5 µg/mL
MIC (Streptococcus pneumoniae; PRSP, S. pneumoniae 0884 (PRSP)): 0.5 µg/mL
MIC (Streptococcus pneumoniae; S. pneumoniae 0866 (PSSP)): 0.25 µg/mL
MIC (Streptococcus pneumoniae; S. pneumoniae 0869 (PSSP)): 0.5 µg/mL
% of Isolates with MBC 0.25 μg/mL (HA-MRSA [1]; 200 HA-MRSA isolates): 0.5%
% of Isolates with MBC 0.5 μg/mL (HA-MRSA [1]; 200 HA-MRSA isolates): 6%
% of Isolates with MBC 1 μg/mL (HA-MRSA [1]; 200 HA-MRSA isolates): 52.5%
% of Isolates with MBC 2 μg/mL (HA-MRSA [1]; 200 HA-MRSA isolates): 36.5%
% of Isolates with MBC ≧4 μg/mL (HA-MRSA [1]; 200 HA-MRSA isolates): 4.5%
% of Isolates with MIC 0.25 μg/mL (HA-MRSA [1]; 200 HA-MRSA isolates): 1.5%
% of Isolates with MIC 0.5 μg/mL (HA-MRSA [1]; 200 HA-MRSA isolates): 14.5%
% of Isolates with MIC 1 μg/mL (HA-MRSA [1]; 200 HA-MRSA isolates): 62%
% of Isolates with MIC 2 μg/mL (HA-MRSA [1]; 200 HA-MRSA isolates): 21.5%
% of Isolates with MIC ≧4 μg/mL (HA-MRSA [1]; 200 HA-MRSA isolates): 0.5%
MBC range (HA-MRSA [1]; 200 HA-MRSA isolates): 0.25 to 4 µg/mL
MIC range (HA-MRSA [1]; 200 HA-MRSA isolates): 0.25 to 4 µg/mL
MIC50 (HA-MRSA [1]; Staphylococcus aureus, MRSA): 1 µg/mL (≈ 0.69 µM)
MIC90 (HA-MRSA [1]; Staphylococcus aureus, MRSA): 2 µg/mL (≈ 1.38 µM)
MBC (HA-MRSA [1]; [3]): 8 µg/mL (≈ 5.52 µM)
MIC (HA-MRSA [1]; [3]): 4 µg/mL (≈ 2.76 µM)
MBC (HA-MRSA [1]; [4]): 1 µg/mL (≈ 0.69 µM)
MIC (HA-MRSA [1]; [4]): 0.5 µg/mL (≈ 0.345 µM)
MBC (HA-MRSA [1]; [5]): 2 µg/mL (≈ 1.38 µM)
MIC (HA-MRSA [1]; [5]): 2 µg/mL (≈ 1.38 µM)
MBC (HA-MRSA [1]; [6]): 1 µg/mL (≈ 0.69 µM)
MIC (HA-MRSA [1]; [6]): 1 µg/mL (≈ 0.69 µM)
bactericidal activity (HA-MRSA [2]): did not display bactericidal activity
